Laboratory results from patent US20240368173A1, “TRICYCLIC GPR65 MODULATORS” (PATHIOS THERAPEUTICS LIMITED, priority 2021, published 2024).

These molecules were tested against human recombinant GPR65 (Homo sapiens, UniProt Q8IYL9) (assay: Human GPR65 cAMP HTRF antagonist assay). Conditions: not given.
Assay type: cell-based
Description: In one preferred embodiment, the compound prevents the increase in cytoplasmic cAMP levels expected following GPR65 activation at acidic pH. This prevention of cAMP accumulation in turn prevents downstream signalling through ICER, as described above. The “Human GPR65 cyclic adenosine monophosphate (cAMP) Homogeneous Time Resolved Fluorescence (HTRF) antagonist assay”, or simply “cAMP assay”, as described in the accompanying examples, can be used to measure the potency of GPR65 modulators, which is expressed as the concentration of compound required to reduce the increase in cAMP concentration upon GPR65 activation by 50% (i.e. an IC50).
Human GPR65 Cyclic Adenosine Monophosphate (cAMP) Homogeneous Time Resolved Fluorescence (HTRF) Antagonist Assay Procedure
IC50 data was obtained by the following procedure:
1321N1 human astrocytoma cells stably expressing human recombinant GPR65 (1321N1-hrGPR65 cells, EuroscreenFast) were cultured according to the vendor's instructions.
Compounds were tested for their ability to antagonise GPR65, through measuring the concentration of cytoplasmic cAMP following treatment of the cells at a pH of 7.2 to activate GPR65 signalling and addition of the compound to be tested. The extent to which the expected rise in cAMP concentration upon GPR65 activation was suppressed by the added compound is indicative of its potency. The assay was carried out according to EuroscreenFast assay Methodology as follows.
On the day of the assay, test compounds were added to 384-well, low volume, white microtiter plates by acoustic dispensing. KRH buffer (5 mM KCl, 1.25 mM MgSO4, 124 mM NaCl, 25 mM HEPES, 13.3 mM Glucose, 1.25 mM KH2PO4 and 1.45 mM CaCl2) was adjusted to pH 6.5, pH 7.6 and pH 8.4 by adding NaOH. 1321N1-hGPR65 cells were rapidly thawed and diluted in KRH, pH 7.6 prior to centrifugation at 300×g for 5 min and resuspension in assay buffer (KRH, pH 7.6, supplemented with 1 mM 3-isobutyl-1-methylxanthine (IBMX) and 200 μM ethylenediaminetetraacetic acid (EDTA)). Cells were added to assay plates at a density of 2,000 cells per well in a volume of 5 μl. Assay plates were briefly centrifuged at 100×g and then incubated at room temperature for 30 min. Cells were stimulated by the addition of 5 μL KRH, pH 6.5, to achieve an assay pH of 7.2, while control wells received 5 μl KRH, pH 8.4 to achieve an assay pH of 7.9. Assay plates were briefly centrifuged at 100×g and then incubated at room temperature for 30 min.
Accumulation of cAMP was detected by cAMP HTRF kit (Cisbio). d2-labeled cAMP and cryptate-labeled anti-cAMP antibody in Lysis and Detection Buffer (Cisbio) were added to assay plates, and the plates were incubated at room temperature for 1 h. HTRF measurements were performed using a Pherastar FSX instrument. Acceptor and donor emission signals were measured at 665 nm and 620 nm, respectively, and HTRF ratios were calculated as signal665 nm/signal620 nm×10^4. Data were normalised to high and low control values and fitted with 4-parameter logistic regression to determine hGPR65 IC50 values for the test compounds, which are shown in Table 1.

Sequence of human recombinant GPR65 (Q8IYL9 whole entry): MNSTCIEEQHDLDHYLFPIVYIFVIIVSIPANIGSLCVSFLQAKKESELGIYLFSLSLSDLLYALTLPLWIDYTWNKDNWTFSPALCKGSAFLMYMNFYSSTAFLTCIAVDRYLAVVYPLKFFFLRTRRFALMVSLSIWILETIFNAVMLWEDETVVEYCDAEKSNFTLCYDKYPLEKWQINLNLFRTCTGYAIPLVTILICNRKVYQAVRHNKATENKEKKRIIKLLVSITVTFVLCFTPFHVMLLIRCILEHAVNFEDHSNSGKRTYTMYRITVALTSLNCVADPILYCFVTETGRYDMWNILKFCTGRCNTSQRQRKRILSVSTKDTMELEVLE

Which IC50 does the source give for `N#Cc1cc(NC(=O)N2[C@H]3CC[C@@H]2c2n[nH]c(=O)cc2C3)c(F)cc1Cl` [Compound 112, (6S,9R)-N-(4-Chloro-5-cyano-2-fluorophenyl)-3-oxo-3,5,6,7,8,9-hexahydro-2H-6,9-epiminocyclohepta[c]pyridazine-10-carboxamide] here?
The IC50 was less than 500 nM.

`CS(=O)(=O)c1ccc(-c2cc(F)c(NC(=O)N3[C@H]4CC[C@@H]3c3n[nH]c(=O)cc3C4)cc2Cl)cc1F` [Compound 132, (6S,9R)-N-(2-Chloro-3′,5-difluoro-4′-(methylsulfonyl)-[1,1′-biphenyl]-4-yl)-3-oxo-3,5,6,7,8,9-hexahydro-2H-6,9-epiminocyclohepta[c]pyridazine-10-carboxamide] was tested. Which IC50 did it give?
Its IC50 is less than 500 nM.

Which IC50 does the source give for `O=C(Nc1cc(F)c(-c2ccc(F)nc2)cc1F)N1[C@H]2CC[C@@H]1c1n[nH]c(=O)cc1C2` [Compound 244, (6S,9R)-N-(2,5-Difluoro-4-(6-fluoropyridin-3-yl)phenyl)-3-oxo-3,5,6,7,8,9-hexahydro-2H-6,9-epiminocyclohepta[c]pyridazine-10-carboxamide] here?
Its IC50 is less than 500 nM.

Which IC50 does the source give for `O=C(Nc1cc(Br)c(Cl)cc1F)N1C2CCC1c1c[nH]c(=O)nc1C2` (racemic) [Compound 15, (±)—N-(5-Bromo-4-chloro-2-fluorophenyl)-2-oxo-3,5,6,7,8,9-hexahydro-2H-5,8-epiminocyclohepta[d]pyrimidine-10-carboxamide] here?
The IC50 was less than 500 nM.

With `O=C(Nc1cc(Cl)c(-c2ccc(OC(C(F)F)C(F)F)nc2)cc1F)N1[C@H]2CC[C@@H]1c1n[nH]c(=O)cc1C2` [Compound 331, (6S,9R)-N-(5-Chloro-2-fluoro-4-(6-((1,1,3,3-tetrafluoropropan-2-yl)oxy)pyridin-3-yl)phenyl)-3-oxo-3,5,6,7,8,9-hexahydro-2H-6,9-epiminocyclohepta[c]pyridazine-10-carboxamide] as the molecule, how does the IC50 read?
The IC50 was less than 500 nM.

For `C[C@@]12CC[C@@H](Cc3c1ccnc3F)N2C(=O)Nc1cc(Cl)c(Cl)cc1F` [Compound 103, (5R,8S)-N-(4,5-Dichloro-2-fluorophenyl)-1-fluoro-5-methyl-6,7,8,9-tetrahydro-5H-5,8-epiminocyclohepta[c]pyridine-10-carboxamide], which IC50 is on record?
Its IC50 is less than 500 nM.

`COc1ncc(-c2cc(F)c(NC(=O)N3[C@H]4CC[C@@H]3c3c[nH]c(=O)cc3C4)cc2Cl)cc1F` [Compound 217, (6S,9R)-N-(5-Chloro-2-fluoro-4-(5-fluoro-6-methoxypyridin-3-yl)phenyl)-3-oxo-3,5,6,7,8,9-hexahydro-2H-6,9-epiminocyclohepta[c]pyridine-10-carboxamide] was tested. Which IC50 did it give?
Its IC50 is less than 500 nM.

With `COCCCOc1cnc(F)c2c1[C@H]1CC[C@@H](C2)N1C(=O)Nc1cc(Cl)c(Cl)cc1F` [Compound 105, (5R,8S)—N-(4,5-Dichloro-2-fluorophenyl)-1-fluoro-4-(3-methoxypropoxy)-6,7,8,9-tetrahydro-5H-5,8-epiminocyclohepta[c]pyridine-10-carboxamide] as the molecule, how does the IC50 read?
The IC50 was less than 500 nM.

How did the IC50 turn out when `O=C(Nc1cc(Cl)c(C(F)(F)F)cc1F)N1[C@@H]2CC[C@H]1c1ccnc(F)c1[C@H]2F` [Compound 295, (5S,8R,9R)-N-(5-Chloro-2-fluoro-4-(trifluoromethyl)phenyl)-1,9-difluoro-6,7,8,9-tetrahydro-5H-5,8-epiminocyclohepta[c]pyridine-10-carboxamide] was run?
The IC50 was less than 500 nM.

`O=C(Nc1cc(Cl)c(-c2ccc3nsnc3c2)cc1F)N1[C@H]2CC[C@@H]1c1ccnc(F)c1C2` [Compound 177, (5R,8S)-N-(4-(benzo[c][1,2,5]thiadiazol-5-yl)-5-chloro-2-fluorophenyl)-1-fluoro-6,7,8,9-tetrahydro-5H-5,8-epiminocyclohepta[c]pyridine-10-carboxamide] was tested. Which IC50 did it give?
Its IC50 is less than 500 nM.

Which IC50 does the source give for `Cn1ccc2c(-c3cc(F)c(NC(=O)N4[C@H]5CC[C@@H]4c4n[nH]c(=O)cc4C5)cc3Cl)ccnc21` [Compound 282, (6S,9R)-N-(5-Chloro-2-fluoro-4-(1-methyl-1H-pyrrolo[2,3-b]pyridin-4-yl)phenyl)-3-oxo-3,5,6,7,8,9-hexahydro-2H-6,9-epiminocyclohepta[c]pyridazine-10-carboxamide] here?
The IC50 was less than 500 nM.

`CCOc1ccc(-c2cc(F)c(NC(=O)N3[C@H]4CC[C@@H]3c3n[nH]c(=O)cc3C4)cc2Cl)cn1` [Compound 208, (6S,9R)-N-(5-Chloro-4-(6-ethoxypyridin-3-yl)-2-fluorophenyl)-3-oxo-3,5,6,7,8,9-hexahydro-2H-6,9-epiminocyclohepta[c]pyridazine-10-carboxamide] was tested. Which IC50 did it give?
Its IC50 is less than 500 nM.

With `O=C(Nc1cc(-c2ccc3nonc3c2)c(C(F)(F)F)cc1F)N1[C@H]2CC[C@@H]1c1n[nH]c(=O)cc1C2` [Compound 254, (6S,9R)-N-(5-(Benzo[c][1,2,5]oxadiazol-5-yl)-2-fluoro-4-(trifluoromethyl)phenyl)-3-oxo-3,5,6,7,8,9-hexahydro-2H-6,9-epiminocyclohepta[c]pyridazine-10-carboxamide] as the molecule, how does the IC50 read?
Its IC50 is less than 500 nM.

For `O=C(Nc1cc(Cl)c(-c2cnc(OCC(F)(F)F)c(F)c2)cc1F)N1[C@H]2CC[C@@H]1c1n[nH]c(=O)cc1C2` [Compound 328, (6S,9R)-N-(5-Chloro-2-fluoro-4-(5-fluoro-6-(2,2,2-trifluoroethoxy)pyridin-3-yl)phenyl)-3-oxo-3,5,6,7,8,9-hexahydro-2H-6,9-epiminocyclohepta[c]pyridazine-10-carboxamide], which IC50 is on record?
Its IC50 is less than 500 nM.

Which IC50 does the source give for `O=C(Nc1cc(Cl)c(-c2cncc(F)c2)cc1F)N1[C@H]2CC[C@@H]1c1c[nH]c(=O)cc1C2` [Compound 201, (6S,9R)-N-(5-Chloro-2-fluoro-4-(5-fluoropyridin-3-yl)phenyl)-3-oxo-3,5,6,7,8,9-hexahydro-2H-6,9-epiminocyclohepta[c]pyridine-10-carboxamide] here?
The IC50 was less than 500 nM.

How did the IC50 turn out when `Cn1ncc2ccc(-c3cc(F)c(NC(=O)N4[C@H]5CC[C@@H]4c4n[nH]c(=O)cc4C5)cc3Cl)cc21` [Compound 152, (6S,9R)-N-(5-Chloro-2-fluoro-4-(1-methyl-1H-indazol-6-yl)phenyl)-3-oxo-3,5,6,7,8,9-hexahydro-2H-6,9-epiminocyclohepta[c]pyridazine-10-carboxamide] was run?
The IC50 was less than 500 nM.

`O=C(Nc1cc(Cl)c(-c2ccc(OC3CC3)nc2)cc1F)N1[C@H]2CC[C@@H]1c1n[nH]c(=O)cc1C2` [Compound 221, (6S,9R)-N-(5-Chloro-4-(6-cyclopropoxypyridin-3-yl)-2-fluorophenyl)-3-oxo-3,5,6,7,8,9-hexahydro-2H-6,9-epiminocyclohepta[c]pyridazine-10-carboxamide] was tested. Which IC50 did it give?
The IC50 was less than 500 nM.

For `COc1ncc(-c2cc(F)c(NC(=O)N3[C@H]4CC[C@@H]3c3n[nH]c(=O)cc3C4)cc2Cl)cn1` [Compound 281, (6S,9R)-N-(5-Chloro-2-fluoro-4-(2-methoxypyrimidin-5-yl)phenyl)-3-oxo-3,5,6,7,8,9-hexahydro-2H-6,9-epiminocyclohepta[c]pyridazine-10-carboxamide], which IC50 is on record?
The IC50 was less than 500 nM.

Same assay, conditions: 1321N1-hrGPR65 cells, cAMP HTRF, assay pH 7.2; read-out: hGPR65 IC50 (Activity of selected compounds according to the invention)

How did the IC50 turn out when `O=C(Nc1cc(Cl)c(-c2cncn2C2CCCCO2)cc1F)N1[C@H]2CC[C@@H]1c1n[nH]c(=O)cc1C2` (stereo partly drawn) [Compound 143, (6S,9R)-N-(5-Chloro-2-fluoro-4-(1-(tetrahydro-2H-pyran-2-yl)-1H-imidazol-5-yl)phenyl)-3-oxo-3,5,6,7,8,9-hexahydro-2H-6,9-epiminocyclohepta[c]pyridazine-10-carboxamide] was run?
The IC50 was 500 to 5000 nM.

How did the IC50 turn out when `O=C(Nc1cc(Cl)c(Cl)cc1F)N1[C@H]2CC[C@@H]1c1ccnc(C(F)F)c1C2` [Compound 89, (5R,8S)-N-(4,5-Dichloro-2-fluorophenyl)-1-(difluoromethyl)-6,7,8,9-tetrahydro-5H-5,8-epiminocyclohepta[c]pyridine-10-carboxamide] was run?
Its IC50 is 500 to 5000 nM.

`O=C(Nc1cc(Cl)c(Br)cc1F)N1[C@@H]2CC[C@H]1c1n[nH]c(=O)cc1C2` [Compound 33, (6R,9S)-N-(4-Bromo-5-chloro-2-fluorophenyl)-3-oxo-3,5,6,7,8,9-hexahydro-2H-6,9-epiminocyclohepta[c]pyridazine-10-carboxamide] was tested. Which IC50 did it give?
The IC50 was greater than 5000 nM.
